Mass density data for five molecules are collected here from the NIST ThermoML archive (doi:10.1021/je201130h).

± gives the expanded uncertainty stated by the source.

For this series the following is noted: 298.15 K; 101.33 kPa; Liquid; Vibrating tube method.
On to `Cc1ccccc1C` [1,2-dimethylbenzene], for which the mass density is listed as 875.52 ± 0.23 kg/m3. On to `Cc1ccccc1` [toluene], for which the mass density is listed as 862.34 ± 0.23 kg/m3. With `Cc1ccc(C)cc1` [1,4-dimethylbenzene], the mass density turned out to be 856.65 ± 0.23 kg/m3. For `CC(=O)CC(C)C` [4-methylpentan-2-one] the value was 798.09 ± 0.24 kg/m3; for `C=CC(=O)O` [propenoic acid], 1059.17 ± 0.32 kg/m3.
